How the values were obtained:
[1] = Chemical stability (thermal, alkaline and acidic media); type: physicochemical
[2] = findings of SCCS; cited from earlier work

SMILES | Stability in alkaline media [1] | Thermal stability [1] | Degradation in alkaline conditions ([1]; above pH 10, ambient temperature) | Degradation at elevated temperatures ([1]; above pH 10 or below about pH 4, elevated temperatures, compared with ambient) | Degradation in acidic conditions ([1]; below about pH 4, ambient temperature) | Allergenicity [2]
CC(=CCCC=O)CCCC(C)(C)O [(I), 5,9-dimethyl-9-hydroxy-decen-4-al] | unstable in alkaline media | thermally unstable | rapidly degraded | degradation proceeds even more rapidly | rapidly degraded | –
CC(C)(O)CCCC1=CCC(C=O)CC1 (stereo not drawn) [cyclohexal, 4(4-hydroxy-4-methylpentyl) 3-cyclohexene carboxaldehyde] | – | – | – | – | – | allergenic concerns
